We go through eight molecules from US20200407700A1, “COMPOSITIONS OF PARP14 MODULATORS AND/OR MUTANTS AND THERAPEUTIC USE THEREOF” (President and Fellows of Harvard College, priority 2018, published 2020).

Entries after “also recorded” stand apart in the source; their conditions may differ.

In assay [1] the test system is poly-ADP-ribose (PAR) levels. Put plainly: Poly-ADP-ribose (PAR) levels in LPS-treated macrophages. The class given is cell-based. The note with it: NAD+ repletion. The source says: NMN, which raises levels of NAD^+, can suppress secretion of IL-1β and IL-18. […] The most robust observation seen is a restoration of poly-ADP-ribose (PAR) levels (FIG. 11B). While this is clearly an effect of restoring NAD^+ levels, its significance on macrophage function is unclear. […] Inflammatory gene expression may be altered, but this must be repeated with an increased N-value (FIG. 11D-F).

For the next assay, the system named is LPS induced sepsis. Description: LPS-induced sepsis (I.P. injection of LPS). It is filed as in vivo. The note with it: mice. How it is done:
One common assay to measure inflammation in vivo is with LPS induced sepsis, whereby LPS is injected intraperitoneally, resulting in a lethal cytokine storm. Drugs or mutations that suppress inflammation increase survival. Mice euthanized 6 hours after LPS injection show in increase in PARP14 levels in multiple tissues (FIG. 13A-D). NAD^+ levels fall in multiple tissues, and in at least in spleen, NAD^+ levels can be protected with a co-injection of PARPi and NRH (FIG. 13E).

For a further assay, the system named is BMDM. Description: Polar metabolomics on BMDM extracts. It is filed as cell-based, mouse. The method, then: (§1) Polar metabolomics on BMDM extracts treated with LPS, OUL35, and NRH were performed. […] Recently, Prof. Marcia Haigis (HMS) published that Sirt3, an NAD^+-sensor, regulates nucleotide metabolism (Gonzalez Herrera et al., 2018). While an increase in nucleotides could promote DNA synthesis, macrophages are reported to suppress the cell cycle in response to LPS. However, macrophages do upregulate reactive oxygen species (ROS) production for bactericidal purposes in response to LPS, and two purines—hypoxanthine and xanthine—are important for this ROS production via the enzyme xanthine oxidase (XO). With the hypothesis that macrophages increase these metabolites for increased ROS production in mind, PARPi and NRH suppress nigericin-induced ROS production, although this experiment must be repeated (FIG. 12O).

Assay [2] has as its system reactive oxygen species (ROS) production. Put plainly: Nigericin-induced ROS production in macrophages. It is filed as cell-based. The note with it: 30 min nigericin treatment; preliminary, must be repeated. The method, then:
as §1

For assay [3], the system named is bone marrow derived macrophages (BMDMs). Put plainly: NAD^+ levels in LPS-treated bone marrow derived macrophages (enzyme-coupled luciferase assay). The note with it: for protection of NAD^+ levels in macrophages exposed to LPS / LPS-induced drop in NAD^+ levels: BMDMs; for LPS-induced drop in NAD^+ levels: 6 hours of treatment, in the presence of LPS. It is filed as cell-based, mouse. From the text: FIG. 2 contains 13 panels, 2A-2M, depicting that PARP14 is necessary for LPS-induced NAD^+ destruction. FIG. 2A-2C show NAD^+ levels in response to LPS in wild-type or (FIG. 2A) CD38KO, (FIG. 2B) SARM1KO, and (FIG. 2C) PARP1KO BMDMs. […] FIGS. 2K and 2L show NAD^+ (2K) and NADH levels (2L) in PARP14KO BMDMs.
FIG. 3 contains 6 panels, 3A-3F, depicting PARP14 catalytic mechanism. […] FIG. 3E depicts NAD^+ levels after treatment with NSC-61610. FIG. 3F depicts NAD^+ levels after treatment with NSC-127133 and LPS.
NAD^+ levels rapidly decline upon LPS-activation in bone marrow derived macrophages (BMDMs). […] NAD^+ and NADH levels recover after about 24 hours (FIG. 1A-1B). […] Using a genetically-encoded fluorescent reporter in RAW264.7 immortalized macrophages (FIG. 1C), it was confirmed that these changes occur in all three major compartments of the cell. Mass spectrometry-based metabolomics in BMDMs were performed which confirmed that an increase in NAD^+ hydrolysis is driving the phenomenon (FIG. 1D-1E). Additional experiments using flux metabolomics in collaboration with Professor Marie Migaud at the University of South Alabama may be used in order to determine the rates of consumption and salvage of NAD^+, before and after treatment with LPS. In such experiments, isotopically-labeled NMN (an NAD^+ precursor) are synthesized with labels on the phosphate, ribose, and nicotinamide groups, which allows tracing of multiple downstream metabolites.

Assay [4] concerns inflammasome (caspase-1 cleavage). Put plainly: Inflammasome activation measured by Caspase 1 cleavage (Casp-1 p20). The class given is cell-based. The following applies: only somewhat reproducible. The source says:
(§2) FIG. 4 contains 5 panels, 4A-4E, depicting that NAD^+ decline promotes inflammasome activation. FIG. 4A-4D show secretion of (FIG. 4A) IL-1β, (FIG. 4B) IL-18, (FIG. 4C) IL-6, and (FIG. 4D) TNF in response to LPS and nigericin, without and with NMN.
One hallmark of inflammasome activation is cleavage of caspase-1 to generate a 20 kD peptide.

Another assay deals with spleen NAD+ levels. Description: NAD^+ levels in aged spleens after I.P. injection. It is filed as in vivo. The note with it: 27 month old mice, 20 mg/kg intraperitoneally, 2 hours post-injection. The method, then:
27 month old mice were injected intraperitoneally with 20 mg/kg of OUL35 dissolved in PBS with 40% HP-beta-cyclodextrin and 1% carboxymethylcellulose. Spleens were collected 2 hours post-injection and assayed for NAD+ levels.

A further assay addresses PARP1 (Homo sapiens, UniProt P09874). The following applies: cited from earlier work.
The test system of another assay is PARPs 4, 10, 14, and 16. The following applies: cited from earlier work.
A further assay has as its system elderly mice. The following applies: cited from earlier work.
Assay [5] relates to secretion of IL-1β, IL-18, IL-6 and TNF. Description: Cytokine secretion in response to LPS and nigericin. It is filed as cell-based.
Text: as §2
IL-1β and IL-18 are unique cytokines in that they require activation of an inflammasome to be processed for release.

The next assay deals with influenza. The following applies: via a different mechanism; cited from earlier work.

PARP1, sequence (P09874 whole entry, species assumed): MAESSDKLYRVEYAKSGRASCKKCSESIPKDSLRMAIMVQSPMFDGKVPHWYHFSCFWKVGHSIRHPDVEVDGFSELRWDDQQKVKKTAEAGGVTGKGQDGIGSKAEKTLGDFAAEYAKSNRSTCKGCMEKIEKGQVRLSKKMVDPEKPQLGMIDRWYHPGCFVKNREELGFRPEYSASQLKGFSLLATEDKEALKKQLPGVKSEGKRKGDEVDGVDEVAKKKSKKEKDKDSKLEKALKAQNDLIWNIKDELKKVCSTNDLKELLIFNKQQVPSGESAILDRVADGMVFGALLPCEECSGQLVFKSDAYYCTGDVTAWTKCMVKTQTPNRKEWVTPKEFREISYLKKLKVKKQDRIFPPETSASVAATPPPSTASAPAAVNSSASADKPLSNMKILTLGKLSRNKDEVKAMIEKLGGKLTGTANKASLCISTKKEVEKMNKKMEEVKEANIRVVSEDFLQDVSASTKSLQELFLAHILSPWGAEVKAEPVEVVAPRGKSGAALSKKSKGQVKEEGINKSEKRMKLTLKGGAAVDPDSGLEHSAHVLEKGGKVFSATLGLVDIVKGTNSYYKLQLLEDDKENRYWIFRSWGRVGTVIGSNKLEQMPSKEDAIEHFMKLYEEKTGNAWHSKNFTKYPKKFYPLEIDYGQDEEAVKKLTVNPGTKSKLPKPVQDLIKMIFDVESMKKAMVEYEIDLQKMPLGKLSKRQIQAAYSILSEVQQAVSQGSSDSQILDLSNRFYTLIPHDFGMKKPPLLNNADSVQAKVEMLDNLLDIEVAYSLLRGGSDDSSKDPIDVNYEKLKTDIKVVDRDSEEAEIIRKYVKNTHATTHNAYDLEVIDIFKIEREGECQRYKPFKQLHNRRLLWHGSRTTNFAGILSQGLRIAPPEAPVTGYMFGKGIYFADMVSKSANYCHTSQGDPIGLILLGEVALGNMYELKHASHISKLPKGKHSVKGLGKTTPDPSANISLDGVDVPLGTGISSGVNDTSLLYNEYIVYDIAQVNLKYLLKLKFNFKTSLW

Regarding `NC(=O)C1=CN([C@@H]2O[C@H](CO)[C@@H](O)[C@H]2O)C=CC1` [NRH, Nicotinamide riboside hydride], the “poly-ADP-ribose (PAR) levels” value in assay [1] is “restoration”. Besides, the “NAD^+ levels in spleen” value in the assay on LPS induced sepsis (6 hours after I.P. injection of LPS, co-injection) is listed as “protected”. In the assay with LPS induced sepsis (I.P. injection of LPS, vs LPS alone), the survival entry was “moderately increased survival”. The “metabolite changes induced by LPS” value with BMDM is reported as “blunt the changes induced by LPS”. The “nigericin-induced ROS production” value in assay [2] is listed as “suppress”. In assay [3], the “protection of NAD^+ levels in macrophages exposed to LPS” value is reported as “protect; also recorded: more potent protectors”. The “raising NAD^+ levels in BMDMs” value in assay [3] (absence and presence of LPS, after 6 hours) is on record as “extremely potent”. In [4], the “cleavage of caspase-1 (inflammasome activation)” value (“cleavage” for short) is listed as “suppression of inflammasome activation”.

As for `O=C(O)c1ccccc1-c1ccccc1C(=O)Nc1ccc2c(c1)[nH]c(=O)c1ccccc12` [NSC-127133], in [3], the “LPS-induced drop in NAD^+ levels” value was “able to block the fall” and the “raise NAD^+ levels in activated macrophages, compared with NMN” value (shortened to “raise NAD^+ levels … compared with NMN”) is on record as “beyond NMN”.

With `NC(=O)c1ccc(Oc2ccc(C(N)=O)cc2)cc1` [OUL35], the “NAD^+ levels in aged spleens” value in the assay with spleen NAD+ levels is on record as “raises NAD^+ levels”. Besides, the “metabolite changes induced by LPS” value in the assay on BMDM is recorded as “blunt the changes induced by LPS”. Moreover, the “activity against PARP1” value at PARP1 was “no activity”. Moreover, in assay [3], the “LPS-induced drop in NAD^+ levels” value is listed as “blocked the drop” and the “raise NAD^+ levels … compared with NMN” value is given as “beyond NMN”. For the same molecule, in assay [4], the “cleavage” value is on record as “suppress”. In addition, in the assay on PARPs 4, 10, 14, and 16, the “inhibition of PARPs 4, 10, 14, and 16” value is listed as “inhibitor”.

As to `NC(=O)c1ccc[n+]([C@@H]2O[C@H](CO)[C@@H](O)[C@H]2O)c1` [NR, nicotinamide riboside], the “metabolism and aspects of ageing” value with elderly mice was “improve metabolism and reverse aspects of ageing”.

For `CN(C)CC(=O)Nc1ccc2[nH]c(=O)c3ccccc3c2c1` [PJ-34], in assay [3], the “LPS-induced drop in NAD^+ levels” value is given as “completely blocked” and the “raise NAD^+ levels … compared with NMN” value is “beyond NMN”. Besides, the “cleavage” value in assay [4] is recorded as “suppress”.

For the molecule `NC(=O)c1cccc(N)c1` [3-aminobenzimide], in assay [3], the “LPS-induced drop in NAD^+ levels” value is “completely blocked” and the “raise NAD^+ levels … compared with NMN” value was “beyond NMN”.

As to `NC(=O)c1ccc[n+]([C@@H]2O[C@H](COP(=O)([O-])O)[C@@H](O)[C@H]2O)c1` [NMN, nicotinamide mononucleotide], in assay [3], the “protection of NAD^+ levels in macrophages exposed to LPS” value is recorded as “slightly protect”. Besides, the “metabolism and aspects of ageing” value in the assay on elderly mice is “improve metabolism and reverse aspects of ageing”. Also, in assay [5], the “secretion of IL-1β and IL-18” value is “suppress”; the “secretion of IL-6 or TNF” value is “not”.

Take `CCOc1ccccc1Cl` [NSC-61610]: in [3], the “LPS-induced drop in NAD^+ levels” value is on record as “able to block the fall” and the “raise NAD^+ levels … compared with NMN” value is “beyond NMN”. Besides, the “effect in a model of influenza” value in the assay on influenza is listed as “anti-inflammatory”.
